{"source": "patent US20080044815A1", "about": "“Genetic Screen for Interaction Interface Mapping” (priority 2003, published 2008)", "origin": "cited, not measured here", "key": {"[1]": {"test_system": "embryonic neurons", "conditions": "Borasio et al. 1998"}, "[2]": {"test_system": "neurons", "conditions": "Saporito et al. 1999"}, "[3]": {"test_system": "nerve growth factor (NGF)-deprived neurons", "conditions": "Harris et al. 2002"}}, "data": [{"smiles": "CCSCc1ccc2c(c1)c1c3c(c4c5cc(CSCC)ccc5n5c4c1n2[C@H]1C[C@](O)(C(=O)OC)[C@]5(C)O1)CNC3=O", "note": "[CEP-1347]", "values": [{"measurement": "survival of embryonic neurons", "setting": "[1]", "value": "support the survival of embryonic neurons"}, {"measurement": "loss of neurons in vivo", "setting": "[2]", "value": "attenuate the loss of neurons in vivo"}, {"measurement": "metabolism and growth of NGF-deprived neurons", "setting": "[3]", "value": "preserve the metabolism and growth"}]}]}
